Test results taken from patent US20240182945A1, “PRODUCTS FOR REGULATION OF EUKARYOTIC AND MICROBIAL CELLS GROWTH” (priority 2021, published 2024).

Columns and labels:
Pseudomonas aeruginosa = conditions: cited from earlier work
[1] = tested on: S.aureus (PP) and MM in sputum from children with pneumonia; assay: Degree of eradication of PP and MM on Columbia agar with antibiotic at concentrations achievable at the site of infection; type: cell-based; design: key to Degree of primary pathogen eradication, evaluation of ABEPP: % of primary pathogen (PP) eliminated
Procedure: We next tried to select antibiotics based on building a probability model. Antibiotic efficacy was evaluated based on a novel parameters: • ABEPPMM100—antibiotic concentration that is required for the elimination of 100% “complex” PP+MM. • ABEPPMM99—antibiotic concentration that is required for the elimination of 99% “complex” PP+MM.
ABEPPMM90—antibiotic concentration that is required for the elimination of 90% “complex” PP+MM.
ABEPPMM50—antibiotic concentration that is required for the elimination of 50% “complex” PP+MM.
ABEPP100—antibiotic concentration that affecting on “complex” PP+MM is required for the elimination of 100% PP.
ABEPP99—antibiotic concentration that affecting on “complex” PP+MM is required for the elimination of 99% PP.
ABEPP90—antibiotic concentration that affecting on “complex” PP+MM is required for the elimination of 90% PP.
ABEPP50—antibiotic concentration that affecting on “complex” PP+MM is required for the elimination of 50% PP.
We used sputum from children with pneumonia, with S.aureus as confirmed PP. Patient 1—child • Patient 2—child • Patient 3—child

[2] = 3 h; cited from earlier work
[3] = tested on: bacteria of sputum from patients with lung diseases; assay: Sputum plated on 24-well plates with antibiotics at Cmax or C0-4 h, Algorithm #1 or #2; type: cell-based; note: key: '+'—presence of bacterial growth, antibiotic ineffective; '−'—absence of bacterial growth, antibiotic effective
Procedure: Pathological material (sputum) from patients with lung diseases was plated into wells of 24-well plates filled with a nutrient medium supplemented with erythrocytes 5%, to which antibiotics were added taken at different concentrations.
Group #1—antibiotics were taken at concentrations close to a maximum (peak) concentration achievable at the site of infection Cmax
Algorithm #1. Lab technician, analyzed the appearance of bacterial growth by comparing the signs of bacterial growth in each well supplemented with antibiotic(s) at certain timepoint, with the signs of bacterial growth in the same well at previous time point(s).
Algorithm #2. Lab technician analyzed the appearance of bacterial growth by comparing the signs of bacterial growth in each well supplemented with antibiotic(s) with bacterial growth in antibiotic-free control

[4] = tested on: bacteria of the biosample (persisters); assay: Neutropenic mice instilled with biosample and treated with antibiotic for 72 h, microbial growth in organs and blood; type: in vivo; conditions: neutropenic C57BL/6 mice treated for 72 h, agar with 100 ug/mL of the antibiotic
Procedure: Next, we confirmed that antibiotics selected with proposed algorithm are effective. Adult C57BL/6 mice were rendered neutropenic by injecting cyclophosphamide subcutaneously 4 days before infection (150 mg/kg of body weight), 1 day before infection (100 mg/kg), and 1 day after infection (100 mg/kg). Mice were anesthetized with 2% isoflurane and orally instilled with biosample (stored at +4 C). Briefly, nares were blocked, and mice aspirated 50 μL of the biosample into the lungs while being held vertically for 60 s.

[5] = tested on: bacteria of sputum from patients with lung diseases; assay: Standard antibiotic susceptibility study using the microbroth dilution method (Algorithm #3); type: cell-based; note: key: '+'—presence of bacterial growth, antibiotic ineffective; '−'—absence of bacterial growth, antibiotic effective
Source text: Algorithm #3—Standard antibiotic susceptibility study using the microbroth dilution method.

[6] = Patient 1, C0-1 h, 24 h of growth
[7] = Patient 1, C0-2 h, 24 h of growth
[8] = Patient 1, C0-3 h, 24 h of growth
[9] = Patient 1, C0-4 h, 24 h of growth
[10] = Patient 1, C0-6 h, 24 h of growth
[11] = Patient 1, C0-8 h, 24 h of growth
[12] = Patient 1, C0-12 h, 24 h of growth
[13] = Patient 1, C0-24 h, 24 h of growth
[14] = Patient 1, C2-3 h, 24 h of growth
[15] = Patient 1, C3-4 h, 24 h of growth
[16] = Patient 1, C4-6 h, 24 h of growth
[17] = Patient 1, C6-8 h, 24 h of growth
[18] = Patient 1, C8-12 h, 24 h of growth
[19] = Patient 1, C12-24 h, 24 h of growth
[20] = Patient 1, Cmax × 2, 24 h of growth
[21] = Patient 2, C0-3 h, 24 h of growth
[22] = Patient 2, C0-4 h, 24 h of growth
[23] = Patient 2, C0-6 h, 24 h of growth
[24] = Patient 2, C0-8 h, 24 h of growth
[25] = Patient 2, C0-12 h, 24 h of growth
[26] = Patient 2, C0-24 h, 24 h of growth
[27] = Patient 2, C3-4 h, 24 h of growth
[28] = Patient 2, C4-6 h, 24 h of growth
[29] = Patient 2, C6-8 h, 24 h of growth
[30] = Patient 2, C8-12 h, 24 h of growth
[31] = Patient 2, C12-24 h, 24 h of growth
[32] = Patient 3, C0-3 h, 24 h of growth
[33] = Patient 3, C0-4 h, 24 h of growth
[34] = Patient 3, C0-6 h, 24 h of growth
[35] = Patient 3, C0-8 h, 24 h of growth
[36] = Patient 3, C0-12 h, 24 h of growth
[37] = Patient 3, C0-24 h, 24 h of growth
[38] = Patient 3, C3-4 h, 24 h of growth
[39] = Patient 3, C4-6 h, 24 h of growth
[40] = Patient 3, C6-8 h, 24 h of growth
[41] = Patient 3, C8-12 h, 24 h of growth
[42] = Patient 3, C12-24 h, 24 h of growth

CC1=C(C(=O)O)N2C(=O)[C@@H](NC(=O)[C@H](N)c3ccccc3)[C@H]2SC1 [Cephalexin]
activity against Pseudomonas aeruginosa according to standard micro-broth dilution method (Pseudomonas aeruginosa): not active

C[C@H]1COc2c(N3CCN(C)CC3)c(F)cc3c(=O)c(C(=O)O)cn1c23 [Levofloxacin]
Degree of primary pathogen eradication, evaluation of ABEPP [1, 6]: 100 | Degree of primary pathogen eradication, evaluation of ABEPPMM [1, 6]: 99 | Degree of primary pathogen eradication, evaluation of ABEPP [1, 7]: 99 | Degree of primary pathogen eradication, evaluation of ABEPPMM [1, 7]: 99 | Degree of primary pathogen eradication, evaluation of ABEPP [1, 8]: 90 | Degree of primary pathogen eradication, evaluation of ABEPPMM [1, 8]: 90 | Degree of primary pathogen eradication, evaluation of ABEPP [1, 9]: 100 | Degree of primary pathogen eradication, evaluation of ABEPPMM [1, 9]: 100 | Degree of primary pathogen eradication, evaluation of ABEPP [1, 10]: 100 | Degree of primary pathogen eradication, evaluation of ABEPPMM [1, 10]: 100 | Degree of primary pathogen eradication, evaluation of ABEPP [1, 11]: 50 | Degree of primary pathogen eradication, evaluation of ABEPPMM [1, 11]: 50 | Degree of primary pathogen eradication, evaluation of ABEPP [1, 12]: 50 | Degree of primary pathogen eradication, evaluation of ABEPPMM [1, 12]: 50 | Degree of primary pathogen eradication, evaluation of ABEPP [1, 13]: 0 | Degree of primary pathogen eradication, evaluation of ABEPPMM [1, 13]: 0 | Degree of primary pathogen eradication, evaluation of ABEPP [1, 14]: 90 | Degree of primary pathogen eradication, evaluation of ABEPPMM [1, 14]: 90 | Degree of primary pathogen eradication, evaluation of ABEPP [1, 15]: 99 | Degree of primary pathogen eradication, evaluation of ABEPPMM [1, 15]: 99 | Degree of primary pathogen eradication, evaluation of ABEPP [1, 16]: 100 | Degree of primary pathogen eradication, evaluation of ABEPPMM [1, 16]: 100 | Degree of primary pathogen eradication, evaluation of ABEPP [1, 17]: 90 | Degree of primary pathogen eradication, evaluation of ABEPPMM [1, 17]: 90 | Degree of primary pathogen eradication, evaluation of ABEPP [1, 18]: 50 | Degree of primary pathogen eradication, evaluation of ABEPPMM [1, 18]: 50 | Degree of primary pathogen eradication, evaluation of ABEPP [1, 19]: 50 | Degree of primary pathogen eradication, evaluation of ABEPPMM [1, 19]: 50 | Degree of primary pathogen eradication, evaluation of ABEPP [1, 20]: 100 | Degree of primary pathogen eradication, evaluation of ABEPPMM [1, 20]: 99 | Degree of primary pathogen eradication, evaluation of ABEPP [1, 21]: 50 | Degree of primary pathogen eradication, evaluation of ABEPPMM [1, 21]: 50 | Degree of primary pathogen eradication, evaluation of ABEPP [1, 22]: 50 | Degree of primary pathogen eradication, evaluation of ABEPPMM [1, 22]: 50 | Degree of primary pathogen eradication, evaluation of ABEPP [1, 23]: 50 | Degree of primary pathogen eradication, evaluation of ABEPPMM [1, 23]: 50 | Degree of primary pathogen eradication, evaluation of ABEPP [1, 24]: 50 | Degree of primary pathogen eradication, evaluation of ABEPPMM [1, 24]: 50 | Degree of primary pathogen eradication, evaluation of ABEPP [1, 25]: 50 | Degree of primary pathogen eradication, evaluation of ABEPPMM [1, 25]: 0 | Degree of primary pathogen eradication, evaluation of ABEPP [1, 26]: 0 | Degree of primary pathogen eradication, evaluation of ABEPPMM [1, 26]: 0 | Degree of primary pathogen eradication, evaluation of ABEPP [1, 27]: 50 | Degree of primary pathogen eradication, evaluation of ABEPPMM [1, 27]: 50 | Degree of primary pathogen eradication, evaluation of ABEPP [1, 28]: 50 | Degree of primary pathogen eradication, evaluation of ABEPPMM [1, 28]: 50 | Degree of primary pathogen eradication, evaluation of ABEPP [1, 29]: 50 | Degree of primary pathogen eradication, evaluation of ABEPPMM [1, 29]: 50 | Degree of primary pathogen eradication, evaluation of ABEPP [1, 30]: 50 | Degree of primary pathogen eradication, evaluation of ABEPPMM [1, 30]: 0 | Degree of primary pathogen eradication, evaluation of ABEPP [1, 31]: 0 | Degree of primary pathogen eradication, evaluation of ABEPPMM [1, 31]: 0 | Degree of primary pathogen eradication, evaluation of ABEPP [1, 32]: 50 | Degree of primary pathogen eradication, evaluation of ABEPPMM [1, 32]: 50 | Degree of primary pathogen eradication, evaluation of ABEPP [1, 33]: 50 | Degree of primary pathogen eradication, evaluation of ABEPPMM [1, 33]: 0 | Degree of primary pathogen eradication, evaluation of ABEPP [1, 34]: 0 | Degree of primary pathogen eradication, evaluation of ABEPPMM [1, 34]: 0 | Degree of primary pathogen eradication, evaluation of ABEPP [1, 35]: 0 | Degree of primary pathogen eradication, evaluation of ABEPPMM [1, 35]: 0 | Degree of primary pathogen eradication, evaluation of ABEPP [1, 36]: 0 | Degree of primary pathogen eradication, evaluation of ABEPPMM [1, 36]: 0 | Degree of primary pathogen eradication, evaluation of ABEPP [1, 37]: 0 | Degree of primary pathogen eradication, evaluation of ABEPPMM [1, 37]: 0 | Degree of primary pathogen eradication, evaluation of ABEPP [1, 38]: 50 | Degree of primary pathogen eradication, evaluation of ABEPPMM [1, 38]: 50 | Degree of primary pathogen eradication, evaluation of ABEPP [1, 39]: 0 | Degree of primary pathogen eradication, evaluation of ABEPPMM [1, 39]: 0 | Degree of primary pathogen eradication, evaluation of ABEPP [1, 40]: 0 | Degree of primary pathogen eradication, evaluation of ABEPPMM [1, 40]: 0 | Degree of primary pathogen eradication, evaluation of ABEPP [1, 41]: 0 | Degree of primary pathogen eradication, evaluation of ABEPPMM [1, 41]: 0 | Degree of primary pathogen eradication, evaluation of ABEPP [1, 42]: 0 | Degree of primary pathogen eradication, evaluation of ABEPPMM [1, 42]: 0 | lung concentration after 3 h of administration [2]: 4.7 µg/mL

CN[C@H](CC(C)C)C(=O)N[C@H]1C(=O)N[C@@H](CC(N)=O)C(=O)N[C@H]2C(=O)N[C@H]3C(=O)N[C@H](C(=O)N[C@H](C(=O)O)c4cc(O)cc(O)c4-c4cc3ccc4O)[C@H](O)c3ccc(c(Cl)c3)Oc3cc2cc(c3O[C@@H]2O[C@H](CO)[C@@H](O)[C@H](O)[C@H]2O[C@H]2C[C@](C)(N)[C@H](O)[C@H](C)O2)Oc2ccc(cc2Cl)[C@H]1O [Vancomycin]
ATB efficacy ([3]; Algorithm #1, antibiotic at C0-4 h): + | ATB efficacy ([3]; Algorithm #1, antibiotic at Cmax): − | ATB efficacy ([3]; Algorithm #2, antibiotic at C0-4 h): + | ATB efficacy ([3]; Algorithm #2, antibiotic at Cmax): − | Number of animals with positive microbial growth on the agar with antibiotics/total number of animals per group ([4]; Blood): 6/8 | Number of animals with positive microbial growth on the agar with antibiotics/total number of animals per group ([4]; Liver): 5/8 | Number of animals with positive microbial growth on the agar with antibiotics/total number of animals per group ([4]; Lungs): 8/8 | activity against Pseudomonas aeruginosa according to standard micro-broth dilution method (Pseudomonas aeruginosa): not active | ATB efficacy [5]: −
